Results from patent publication US9682985B2, “(Indazol-4-yl) hexahydropyrrolopyrrolones and methods of use” (AbbVie Inc., priority 2015, dated 2017).

molecular target: T1, recombinant human Nav1.7 (Homo sapiens, UniProt Q15858); assay: FRET-based membrane potential assay, Nav1.7; assay type: cell-based; conditions: HEK293 cells expressing recombinant human Nav1.7; veratridine + scorpion venom depolarization
T1 construct: expressed in transfected cells; host or cells: HEK293
T1 sequence (Q15858 whole entry): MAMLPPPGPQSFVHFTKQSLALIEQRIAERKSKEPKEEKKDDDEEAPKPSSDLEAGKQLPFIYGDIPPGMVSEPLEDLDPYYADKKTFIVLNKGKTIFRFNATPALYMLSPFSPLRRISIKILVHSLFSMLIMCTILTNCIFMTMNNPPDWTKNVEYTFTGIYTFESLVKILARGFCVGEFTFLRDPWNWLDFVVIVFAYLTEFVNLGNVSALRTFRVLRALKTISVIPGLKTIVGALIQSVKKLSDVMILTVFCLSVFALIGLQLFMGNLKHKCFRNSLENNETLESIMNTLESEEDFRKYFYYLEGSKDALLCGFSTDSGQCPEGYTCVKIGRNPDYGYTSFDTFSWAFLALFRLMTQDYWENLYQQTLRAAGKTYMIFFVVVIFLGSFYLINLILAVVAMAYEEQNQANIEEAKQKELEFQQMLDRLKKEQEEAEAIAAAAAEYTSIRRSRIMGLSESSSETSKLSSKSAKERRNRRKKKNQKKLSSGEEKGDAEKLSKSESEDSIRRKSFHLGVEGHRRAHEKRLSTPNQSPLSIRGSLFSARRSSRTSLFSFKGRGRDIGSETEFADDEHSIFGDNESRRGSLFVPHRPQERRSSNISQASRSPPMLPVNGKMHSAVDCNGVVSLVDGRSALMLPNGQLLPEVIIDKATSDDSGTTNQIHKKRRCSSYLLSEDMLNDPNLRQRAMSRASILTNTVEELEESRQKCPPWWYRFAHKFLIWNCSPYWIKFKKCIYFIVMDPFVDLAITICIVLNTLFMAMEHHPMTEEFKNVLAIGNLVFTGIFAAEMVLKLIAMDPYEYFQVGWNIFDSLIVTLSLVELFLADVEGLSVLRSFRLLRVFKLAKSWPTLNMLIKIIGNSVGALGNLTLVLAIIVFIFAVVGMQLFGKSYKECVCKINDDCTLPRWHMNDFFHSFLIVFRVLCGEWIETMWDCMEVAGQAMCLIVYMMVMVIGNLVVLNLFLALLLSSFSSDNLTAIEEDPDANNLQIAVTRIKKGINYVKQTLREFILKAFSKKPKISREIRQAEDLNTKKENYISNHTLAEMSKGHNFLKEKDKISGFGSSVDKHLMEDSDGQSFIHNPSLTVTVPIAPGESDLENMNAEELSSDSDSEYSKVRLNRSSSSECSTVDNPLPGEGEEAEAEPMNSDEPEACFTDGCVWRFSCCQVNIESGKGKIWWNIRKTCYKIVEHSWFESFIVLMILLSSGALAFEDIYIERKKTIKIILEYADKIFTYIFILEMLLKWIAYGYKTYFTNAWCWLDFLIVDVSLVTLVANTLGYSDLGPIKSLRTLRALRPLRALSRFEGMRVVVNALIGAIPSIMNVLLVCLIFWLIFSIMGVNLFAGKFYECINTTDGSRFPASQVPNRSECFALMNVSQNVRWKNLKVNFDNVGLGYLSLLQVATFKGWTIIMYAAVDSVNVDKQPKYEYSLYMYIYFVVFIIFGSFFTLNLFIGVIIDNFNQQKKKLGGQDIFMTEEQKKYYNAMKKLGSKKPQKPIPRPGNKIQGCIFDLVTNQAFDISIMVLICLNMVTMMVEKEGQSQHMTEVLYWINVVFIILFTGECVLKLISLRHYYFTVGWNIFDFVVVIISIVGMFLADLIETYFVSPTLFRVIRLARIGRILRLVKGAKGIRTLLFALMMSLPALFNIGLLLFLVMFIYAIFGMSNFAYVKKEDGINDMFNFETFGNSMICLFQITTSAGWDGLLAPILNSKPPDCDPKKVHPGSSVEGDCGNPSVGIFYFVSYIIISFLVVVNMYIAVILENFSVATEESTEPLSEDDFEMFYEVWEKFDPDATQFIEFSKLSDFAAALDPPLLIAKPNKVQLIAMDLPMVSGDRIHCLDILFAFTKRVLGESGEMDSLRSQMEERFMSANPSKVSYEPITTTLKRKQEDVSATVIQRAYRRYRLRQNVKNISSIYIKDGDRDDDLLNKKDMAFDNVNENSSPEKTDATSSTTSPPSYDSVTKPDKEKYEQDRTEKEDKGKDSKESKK

Compound	IC50 [µM]
O=C(NCc1cnco1)N1C[C@H]2CN(c3cccc4c3cnn4-c3ccccc3F)C(=O)[C@H]2C1 (relative stereo) [Example 13, rel-(3aR,6aR)-5-[1-(2-fluorophenyl)-1H-indazol-4-yl]-N-(1,3-oxazol-5-ylmethyl)-4-oxohexahydropyrrolo[3,4-c]pyrrole-2(1H)-carboxamide]	11.1
CN(C)C(=O)N1C[C@H]2CN(c3cccc4c3cnn4-c3ccccc3F)C(=O)[C@H]2C1 (relative stereo) [Example 15, rel-(3aR,6aR)-5-[1-(2-fluorophenyl)-1H-indazol-4-yl]-N,N-dimethyl-4-oxohexahydropyrrolo[3,4-c]pyrrole-2(1H)-carboxamide]	7.57
CC(=O)N1C[C@@H]2CN(c3cccc4c3cnn4-c3ccccc3F)C(=O)[C@H]2C1 (relative stereo) [Example 17, rel-(3aR,6aR)-5-acetyl-2-[1-(2-fluorophenyl)-1H-indazol-4-yl]hexahydropyrrolo[3,4-c]pyrrol-1(2H)-one]	8.93
CC(C)C(=O)N1C[C@@H]2CN(c3cccc4c3cnn4-c3ccccc3F)C(=O)[C@@H]2C1 [Example 20, (3aR,6aS)-2-[1-(2-fluorophenyl)-1H-indazol-4-yl]-5-isobutyrylhexahydropyrrolo[3,4-c]pyrrol-1(2H)-one]	4.48
CS(=O)(=O)N1C[C@@H]2CN(c3cccc4c3cnn4-c3ccccc3F)C(=O)[C@@H]2C1 [Example 22, (3aS,6aS)-2-[1-(2-fluorophenyl)-1H-indazol-4-yl]-5-(methylsulfonyl)hexahydropyrrolo[3,4-c]pyrrol-1(2H)-one]	6.72
O=C1[C@@H]2CN(S(=O)(=O)c3cccnc3)C[C@@H]2CN1c1cccc2c1cnn2-c1ccccc1F [Example 27, (3aS,6aS)-2-[1-(2-fluorophenyl)-1H-indazol-4-yl]-5-(pyridin-3-ylsulfonyl)hexahydropyrrolo[3,4-c]pyrrol-1(2H)-one]	3.62
O=C1[C@@H]2CN(S(=O)(=O)C3CC3)C[C@@H]2CN1c1cccc2c1cnn2-c1ccccc1F [Example 28, (3aS,6aS)-5-(cyclopropylsulfonyl)-2-[1-(2-fluorophenyl)-1H-indazol-4-yl]hexahydropyrrolo[3,4-c]pyrrol-1(2H)-one]	3.82
CC(C)(C)OC(=O)N1CCC(S(=O)(=O)N2CC3CN(c4cccc5c4cnn5-c4ccccc4F)C(=O)C3C2)CC1 [Example 30, tert-butyl 4-{[(3aS,6aS)-5-[1-(2-fluorophenyl)-1H-indazol-4-yl]-4-oxohexahydropyrrolo[3,4c]-pyrrol-2(1H)-yl]sulfonyl}piperidine-1-carboxylate]	3.62
Cc1noc(C)c1CC(=O)N1C[C@@H]2CN(c3cccc4c3cnn4-c3ccccc3F)C(=O)[C@@H]2C1 [Example 33, (3aR,6aS)-5-[(3,5-dimethyl-1,2-oxazol-4-yl)acetyl]-2-[1-(2-fluorophenyl)-1H-indazol-4-yl]hexahydropyrrolo[3,4-c]pyrrol-1(2H)-one]	13.3
C[C@H](O)CC(=O)N1C[C@@H]2CN(c3cccc4c3cnn4-c3ccccc3F)C(=O)[C@@H]2C1 [Example 36, (3aR,6aS)-2-[1-(2-fluorophenyl)-1H-indazol-4-yl]-5-[(3S)-3-hydroxybutanoyl]hexahydropyrrolo[3,4-c]pyrrol-1(2H)-one]	11.5
C[C@@H](O)CC(=O)N1C[C@H]2CN(c3cccc4c3cnn4-c3ccccc3F)C(=O)[C@H]2C1 [Example 38, (3aS,6aR)-2-[1-(2-fluorophenyl)-1H-indazol-4-yl]-5-[(3R)-3-hydroxybutanoyl]hexahydropyrrolo[3,4-c]pyrrol-1(2H)-one]	6.4
C[C@@H](O)CC(=O)N1C[C@@H]2CN(c3cccc4c3cnn4-c3ccccc3F)C(=O)[C@@H]2C1 [Example 39, (3aR,6aS)-2-[1-(2-fluorophenyl)-1H-indazol-4-yl]-5-[(3R)-3-hydroxybutanoyl]hexahydropyrrolo[3,4-c]pyrrol-1(2H)-one]	14.6
